Patent publication US20220009920A1 (GB005, Inc., priority 2020, published 2022)

Tests used:
Assay in all cases: Large panel kinase profiling
Format in all cases: biochemical
Conditions in all cases: 1 μM test article, 1 mM ATP
MARK4 = target: T1, MARK4 (Homo sapiens, UniProt Q96L34)
T1 construct: AssayQuant Technologies, Inc. (assay service)
T1 sequence (Q96L34 1-752): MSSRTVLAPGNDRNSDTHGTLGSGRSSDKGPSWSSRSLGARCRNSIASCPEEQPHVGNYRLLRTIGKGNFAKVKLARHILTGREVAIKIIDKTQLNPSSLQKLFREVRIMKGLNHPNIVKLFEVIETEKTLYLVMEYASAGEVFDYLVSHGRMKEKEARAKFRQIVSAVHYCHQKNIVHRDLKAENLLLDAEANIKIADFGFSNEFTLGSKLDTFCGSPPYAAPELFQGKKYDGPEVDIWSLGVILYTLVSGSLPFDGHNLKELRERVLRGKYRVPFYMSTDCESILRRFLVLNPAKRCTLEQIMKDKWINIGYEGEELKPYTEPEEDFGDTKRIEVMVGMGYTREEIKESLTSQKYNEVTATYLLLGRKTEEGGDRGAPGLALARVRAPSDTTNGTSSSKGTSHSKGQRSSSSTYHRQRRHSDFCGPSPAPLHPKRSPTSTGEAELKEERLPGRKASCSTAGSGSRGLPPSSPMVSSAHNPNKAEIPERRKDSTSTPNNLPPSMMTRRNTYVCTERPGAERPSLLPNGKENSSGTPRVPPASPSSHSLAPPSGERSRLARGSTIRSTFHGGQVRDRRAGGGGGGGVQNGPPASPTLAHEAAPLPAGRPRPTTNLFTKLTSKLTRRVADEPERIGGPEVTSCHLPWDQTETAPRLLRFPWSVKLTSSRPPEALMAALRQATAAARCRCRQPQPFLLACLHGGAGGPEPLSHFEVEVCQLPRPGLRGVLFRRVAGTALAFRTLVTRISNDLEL
Outline: (§1)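 Single-point profiling at 1 μM test article used 1 mM ATP. Phosphorylation was tracked by sensor fluorescence increase over time at 30° C., with readings each minute at excitation 360 nm and emission 485 nm.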

GSK3B = target: T2, GSK3B (Homo sapiens, UniProt P49841)
T2 construct: AssayQuant Technologies, Inc. (service provider)
Outline: as §1

MAP3K13 = target: T3, MAP3K13 (Homo sapiens, UniProt O43283)
T3 sequence (O43283 1-966): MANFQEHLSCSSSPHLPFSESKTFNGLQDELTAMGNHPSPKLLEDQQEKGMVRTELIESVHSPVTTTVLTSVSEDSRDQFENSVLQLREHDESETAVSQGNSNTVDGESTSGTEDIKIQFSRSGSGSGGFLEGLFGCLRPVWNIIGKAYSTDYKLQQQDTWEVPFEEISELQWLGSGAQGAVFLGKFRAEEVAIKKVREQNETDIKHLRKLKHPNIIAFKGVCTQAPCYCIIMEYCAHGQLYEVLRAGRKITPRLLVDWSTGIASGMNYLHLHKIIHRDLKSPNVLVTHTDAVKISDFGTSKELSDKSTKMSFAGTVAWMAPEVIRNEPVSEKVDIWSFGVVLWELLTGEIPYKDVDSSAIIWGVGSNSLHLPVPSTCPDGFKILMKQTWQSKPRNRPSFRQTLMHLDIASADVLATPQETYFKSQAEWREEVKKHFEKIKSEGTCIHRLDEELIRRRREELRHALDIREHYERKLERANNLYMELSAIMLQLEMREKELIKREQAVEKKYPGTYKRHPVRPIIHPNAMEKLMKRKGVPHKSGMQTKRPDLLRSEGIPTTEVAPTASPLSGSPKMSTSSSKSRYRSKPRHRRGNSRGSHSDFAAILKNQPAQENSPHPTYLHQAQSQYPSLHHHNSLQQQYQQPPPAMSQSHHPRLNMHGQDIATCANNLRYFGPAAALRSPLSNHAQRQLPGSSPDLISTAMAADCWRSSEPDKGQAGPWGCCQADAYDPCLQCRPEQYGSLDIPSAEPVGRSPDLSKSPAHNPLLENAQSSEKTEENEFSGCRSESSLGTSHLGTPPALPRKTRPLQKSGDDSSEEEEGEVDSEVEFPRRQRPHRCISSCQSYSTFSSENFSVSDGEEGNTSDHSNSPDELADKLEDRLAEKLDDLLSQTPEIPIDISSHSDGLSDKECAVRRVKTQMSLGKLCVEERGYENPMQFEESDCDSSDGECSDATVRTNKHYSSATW
Outline: as §1

T2 sequence (P49841 whole entry, species assumed): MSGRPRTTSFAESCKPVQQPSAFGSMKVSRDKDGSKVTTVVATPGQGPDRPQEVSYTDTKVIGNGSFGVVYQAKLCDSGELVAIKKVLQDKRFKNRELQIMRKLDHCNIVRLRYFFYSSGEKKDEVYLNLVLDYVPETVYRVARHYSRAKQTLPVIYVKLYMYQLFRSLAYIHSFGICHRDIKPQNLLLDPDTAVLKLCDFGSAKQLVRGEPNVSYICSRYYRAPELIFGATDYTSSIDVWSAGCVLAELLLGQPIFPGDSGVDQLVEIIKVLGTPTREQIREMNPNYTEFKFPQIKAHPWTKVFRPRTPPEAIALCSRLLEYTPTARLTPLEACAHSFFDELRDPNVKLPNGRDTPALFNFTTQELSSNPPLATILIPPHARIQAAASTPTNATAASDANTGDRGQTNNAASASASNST

SMILES	inhibition at 1 µM (MARK4)	inhibition at 1 µM (GSK3B)	inhibition at 1 µM (MAP3K13)
C=CC(=O)N1CCCC(c2c(F)cc(C(N)=O)c3[nH]c4c(c23)CCCCC4)C1 (single isomer, unassigned) [Compound 5-6]	8.1%	-6%	3.6%
C=CC(=O)N1CCC[C@@H](c2c(F)cc(C(N)=O)c3[nH]c4c(c23)CCC4)C1 [Compound 10-2, (S)-8-(1-acryloylpiperidin-3-yl)-7-fluoro-1,2,3,4-tetrahydrocyclo-penta[b]indole-5-carboxamide]	1.7%	-12.5%	3.2%
C=CC(=O)N1CCC[C@@H](c2c(F)cc(C(N)=O)c3[nH]c4c(c23)CC2(CC4)CC2)C1 [Compound 6-2, (S)-5-(1-acryloylpiperidin-3-yl)-6-fluoro-1,2,4,9-tetrahydrospiro[carbazole-3,1′-cyclopropane]-8-carboxamide]	-10.2%	18.7%	16.1%
